# Assay results from US7005430B2, “Fused purine derivatives” (Kyowa Hakko Kogyo Co., Ltd., priority 1999, dated 2006).
# Key:
# [1] = test system: dd mice; test: Acute toxicity test (minimum lethal dose); type: in vivo; conditions: po, mortality rate after seven days
# Description: A test compound was orally administered to dd mice [male, body weight: 20±1 g (n=3)]. Mortality rate after seven days was measured to determine minimum lethal dose (MLD).
# [2] = test system: MIN6 cell; test: Insulin secretion promoting activity for cultured β cells (MIN6); type: cell-based
# Description: Culture of the MIN6 cells above and insulin secretion test utilizing the MIN6 cells were performed according to the methods described in Diabetologia, vol. 36, pp. 1139–1145, 1993. The effect of a compound on the insulin secretion in the presence of 14.5 mmol/L glucose was determined by measuring insulin amounts in cell culture supernatants collected as follows. MIN6 cells cultured on a 24-well plate were washed twice by using 1 mL of Buffer A (119 mmol/L sodium chloride, 4.74 mmol/L potassium chloride, 2.54 mmol/L calcium chloride, 1.19 mmol/L magnesium sulfate, 1.19 mmol/L potassium dihydrogenphosphate, 10 mmol/L 2-[4-(2-hydroxyethyl)-1-piperazinyl]ethanesulfonic acid, 0.1% bovine serum albumin, pH 7.3) containing 2 mmol/L glucose, and then were incubated in 1 mL of Buffer A containing 2 mmol/L glucose at 37° C. for 45 minutes. After the incubation, the culture supernatant was changed to Buffer A (0.9 mL) containing a test compound at various concentrations and 2 mmol/L glucose, and the cells were further incubated at 37° C. for 15 minutes. The MIN6 cells were stimulated with glucose by the addition of Buffer A (0.1 mL) containing 127 mmol/L glucose to the culture (final glucose concentration: 14.5 mmol/L). After the stimulation, the cells were further incubated at 37° C. for 45 minutes, and then the culture supernatant was collected.
# Separately, the effect of a compound on the insulin secretion in the presence of 5 mmol/L glucose was determined by measuring insulin amounts in cell culture supernatants collected as follows. MIN6 cells cultured on a 24-well plate were washed twice by using 1 mL of Buffer A containing 5 mmol/L glucose, and then the culture supernatant was changed to Buffer A (0.9 mL) containing a test compound at various concentrations and 5 mmol/L glucose. Then, the cells were incubated at 37° C. for 45 minutes (final glucose concentration: 5 mmol/L), and the culture supernatant was collected.
# After the culture supernatant was diluted with a phosphate buffer containing 1% bovine serum albumin, 0.1% Tween 20, 0.12% disodium ethylenediaminetetraacetate (EDTA) and 0.1% sodium azide, antibody-reactive insulin secreted in the culture supernatant was quantified by enzyme immunoassay or radio immunoassay. The insulin level was indicated as the amount of human insulin (ng/mL). The results are indicated as averages (avg) for 3 to 4 samples with standard erroe values (se).
# [3] = test system: Wistar male rats; test: Hyperglycemia suppressing action after glucose loading in normal rats; type: in vivo; conditions: 14 mg/kg po
# Description: Wistar male rats (body weight: about 280 g) were used for the experiment after starvation for 24 hours. A test compound was orally administered to the rats 15 minutes before oral administration of glucose (2 g/kg). Blood was collected from a tail vein before the administration of the test compound and 30, 60, 120 and 180 minutes after the glucose loading, and blood glucose level was measured by using a simplified blood sugar level measuring apparatus.
# [4] = in the presence of 5 mmol/L of glucose, drug concentration 10 (mmol/L [sic]), None = 51.2
# [5] = in the presence of 14.5 mmol/L of glucose, drug concentration 1.0 μmol/L, None = 148.4
melting point,Compound,minimum lethal dose (MLD) [1],"Insulin secretion amount (ng/ml) avg [2, 4]","Insulin secretion amount (ng/ml) avg [2, 5]","Plasma Glucose Concentration ([3]; 30 minutes after glucose loading (2 g/kg), Control 169 ± 7.2)","Plasma Glucose Concentration ([3]; 60 minutes after glucose loading (2 g/kg), Control 167 ± 8.0)","Plasma Glucose Concentration ([3]; 120 minutes after glucose loading (2 g/kg), Control 93 ± 4.5)","Plasma Glucose Concentration ([3]; 180 minutes after glucose loading (2 g/kg), Control 83 ± 3.7)","Plasma Glucose Concentration ([3]; time 0 (before administration of the test compound), Control 82 ± 3.7)"
–,"CCCN1C(=O)N2C[C@@H](Cc3ccncc3)N=C2c2[nH]c(C3CCCC3)nc21 [Compound 2, (R)-2-Cyclopentyl-7,8-dihydro-8-(4-picolyl)-4-(n-propyl)-1H-imidazo[2,1-i]purin-5(4H)-one D-tartrate]",not less than 500 mg/kg,86.3 ng/mL,203.6 ng/mL,144 ± 6.6 mg/dL,156 ± 5.7 mg/dL,90 ± 5.7 mg/dL,82 ± 4.2 mg/dL,91 ± 2.1 mg/dL
220 to 222 °C,"CCOC1=Nc2nc(C(C)(C)C)[nH]c2C2=N[C@H](Cc3ccccc3)CN12 [Compound 70, (R)-8-Benzyl-2-(tert-butyl)-5-ethoxy-7,8-dihydro-1H-imidazo[2,1-i]purine]",–,57.0 ng/mL,174.9 ng/mL,–,–,–,–,–
171 to 174 °C,"CSC1=Nc2nc(C(C)(C)C)[nH]c2C2=N[C@H](Cc3ccccc3)CN12 [Compound 73, (R)-8-Benzyl-2-(tert-butyl)-7,8-dihydro-5-methylthio-1H-imidazo[2,1-i]purine]",–,63.3 ng/mL,176.6 ng/mL,–,–,–,–,–
